In US7772241B2, “Variolin derivatives and their use as antitumor agents” (Pharma Mar S.A., priority 2001, dated 2010):

Legend:
HT-29 = test: Inhibition of cells growth by colorimetric (SRB) assay, HT-29; conditions: SRB assay, 48 hours exposure
Summary of the method: (§1)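 Read-out is sulforhodamine B protein stain (OD 490 nm) after cold TCA fixation, following 48 h continuous exposure to samples spanning 10 to 10^−8 μg/ml.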

HeLa = test: Inhibition of cells growth by colorimetric (SRB) assay, HeLa
Text: (§2) The finality of these assays is to interrupt the growth of a “in vitro” tumor cell culture by means a continued exhibition of the cells to the sample to be testing.
(§3) This form of the assay employs 96 well cell culture microplates of 9 mm diameter (Faircloth, 1988; Mosmann, 1983). Most of the cell lines are obtained from American Type Culture Collection (ATCC) derived from different human cancer types.
(§4) Cells are maintained in RPMI 1640 10% FBS, supplemented with 0.1 g/l penicillin and 0.1 g/l streptomycin sulphate and then incubated at 37° C., 5% CO2 and 98% humidity. For the experiments, cells were harvested from subconfluent cultures using trypsin and resuspended in fresh medium before plating.
(§5) Cells are seeded in 96 well microtiter plates, at 5×10^3 cells per well in aliquots of 195 μl medium, and they are allowed to attach to the plate surface by growing in drug free medium for 18 hours. Afterward, samples are added in aliquots of 5 μl in a ranging from 10 to 10^−8 μg/ml, dissolved in DMSO/EtOH/PBS (0.5:0.5:99). After 48 hours exposure, the antitumor effect are measured by the SRB methodology: cells are fixed by adding 50 μl of cold 50% (wt/vol) trichloroacetic acid (TCA) and incubating for 60 minutes at 4° C. Plates are washed with deionized water and dried. One hundred μl of SRB solution (0.4% wt/vol in 1% acetic acid) is added to each microtiter well and incubated for 10 minutes at room temperature. Unbound SRB is removed by washing with 1% acetic acid. Plates are air dried and bound stain is solubilized with Tris buffer. Optical densities are read on a automated spectrophotometric plate reader at a single wavelength of 490 nm.
(§6) The values for mean +/−SD of data from triplicate wells are calculated. Some parameters for cellular responses can be calculated: GI=growth inhibition, TGI=total growth inhibition (cytostatic effect) and LC=cell killing (cytotoxic effect).

LoVo = test: Inhibition of cells growth by colorimetric (SRB) assay, LoVo; conditions: SRB assay, 48 hours exposure
Summary of the method: as §1

K-562 = test: Inhibition of cells growth by colorimetric (SRB) assay, K-562; conditions: SRB assay, 48 hours exposure
Summary of the method: as §1

LoVo-Dox = test: Inhibition of cells growth by colorimetric (SRB) assay, LoVo-Dox; conditions: SRB assay, 48 hours exposure
Summary of the method: as §1

SK-MEL-28 = test: Inhibition of cells growth by colorimetric (SRB) assay, SK-MEL-28; conditions: SRB assay, 48 hours exposure
Summary of the method: as §1

LNCaP = test: Inhibition of cells growth by colorimetric (SRB) assay, LNCaP; conditions: SRB assay, 48 hours exposure
Summary of the method: as §1

SK-BR-3 = test: Inhibition of cells growth by colorimetric (SRB) assay, SK-BR-3
Summary of the method: as §1

IGROV-1 = test: Inhibition of cells growth by colorimetric (SRB) assay, IGROV-1; conditions: SRB assay, 48 hours exposure
Summary of the method: as §1

A-549 = test: Inhibition of cells growth by colorimetric (SRB) assay, A-549; conditions: SRB assay, 48 hours exposure
Summary of the method: as §1

DU-145 = test: Inhibition of cells growth by colorimetric (SRB) assay, DU-145; conditions: SRB assay, 48 hours exposure
Summary of the method: as §1

IGROV-ET = test: Inhibition of cells growth by colorimetric (SRB) assay, IGROV-ET; conditions: SRB assay, 48 hours exposure
Summary of the method: as §1

HeLa-APL = test: Inhibition of cells growth by colorimetric (SRB) assay, HeLa-APL
Text: as §2, §3, §4, §5, §6

PANC-1 = test: Inhibition of cells growth by colorimetric (SRB) assay, PANC-1; conditions: SRB assay, 48 hours exposure
Summary of the method: as §1

`COc1ccnc2c1c(-c1ccnc(N)n1)c1ccnc(N)n12.Cl` [Compound 116] was tested, and the “TGI HT-29” value (HT-29) was 1.88E−05, the GI50 (HT-29; read-out: GI50 HT-29) was 6.18 µM and the CC50 (HT-29; read-out: LC50 HT-29) was 26.3 µM. The GI50 (HeLa; Homo sapiens, HeLa, 48 h, read-out: GI50 HELA, SRB assay, 48 hours exposure) was 0.151 µM, the “TGI HELA” value (HeLa; SRB assay, 48 hours exposure) was 5.26E−07 and the “TGI LOVO” value (LoVo) was 1.22E−06. For the same compound, the GI50 (LoVo; read-out: GI50 LOVO) was 0.55 µM, the CC50 (LoVo; read-out: LC50 LOVO) was 26.3 µM and the “TGI K-562” value (K-562) was 2.12E−05. The GI50 (K-562; read-out: GI50 K-562) was 2.87 µM, the CC50 (K-562; read-out: LC50 K-562) was 26.3 µM and the “TGI LOVO-DOX” value (LoVo-Dox) was 2.59E−06. For the same compound, the GI50 (LoVo-Dox; read-out: GI50 LOVO-DOX) was 1.07 µM, the CC50 (LoVo-Dox; read-out: LC50 LOVO-DOX) was 26.3 µM and the “TGI MEL-28” value (SK-MEL-28) was 2.11E−06. For the same compound, the GI50 (SK-MEL-28; read-out: GI50 MEL-28) was 1.1 µM, the CC50 (SK-MEL-28; read-out: LC50 MEL-28) was 10.4 µM and the “TGI LN-caP” value (LNCaP) was 1.21E−06. The GI50 (LNCaP; read-out: GI50 LN-caP) was 0.602 µM, the CC50 (LNCaP; read-out: LC50 LN-caP) was 2.43 µM and the GI50 (SK-BR-3; Homo sapiens, SK-BR-3, 48 h, read-out: GI50 SK-BR-3, SRB assay, 48 hours exposure) was 0.892 µM. The CC50 (SK-BR-3; Homo sapiens, SK-BR-3, 48 h, read-out: LC50 SK-BR-3, SRB assay, 48 hours exposure) was 3.5 µM, the “TGI SK-BR-3” value (SK-BR-3; SRB assay, 48 hours exposure) was 1.55E−06 and the “TGI IGROV” value (IGROV-1) was 1.66E−06. The GI50 (IGROV-1; read-out: GI50 IGROV) was 0.934 µM, the CC50 (IGROV-1; read-out: LC50 IGROV) was 26.3 µM and the “TGI A-549” value (A-549) was 7.68E−06. For the same compound, the GI50 (A-549; read-out: GI50 A-549) was 1.15 µM, the CC50 (A-549; read-out: LC50 A-549) was 26.3 µM and the “TGI DU-145” value (DU-145) was 2.54E−06. For the same compound, the GI50 (DU-145; read-out: GI50 DU-145) was 1.13 µM, the CC50 (DU-145; read-out: LC50 DU-145) was 26.3 µM and the “TGI IGROV-ET” value (IGROV-ET) was 2.50E−06. It also gave a GI50 (IGROV-ET; read-out: GI50 IGROV-ET) of 1.37 µM, a CC50 (IGROV-ET; read-out: LC50 IGROV-ET) of 26.3 µM and a GI50 (HeLa-APL; Homo sapiens, 48 h, read-out: GI50 HELA-APL, SRB assay, 48 hours exposure) of 0.0989 µM. For the same compound, the CC50 (HeLa-APL; Homo sapiens, 48 h, read-out: LC50 HELA-APL, SRB assay, 48 hours exposure) was 2.3 µM, the “TGI HELA-APL” value (HeLa-APL; SRB assay, 48 hours exposure) was 2.17E−07 and the “TGI PANC-1” value (PANC-1) was 1.29E−05. The GI50 (PANC-1; read-out: GI50 PANC-1) was 1.79 µM and the CC50 (PANC-1; read-out: LC50 PANC-1) was 26.3 µM.
